Consider 23 molecules from ChEMBL document CHEMBL1687705, “Design, Synthesis, and in Vitro Evaluation of Novel Aminomethyl-pyridines as DPP-4 Inhibitors” (ACS Med Chem Lett, 2010).

Assay [1] has as its target Dipeptidyl peptidase 4 (Homo sapiens, UniProt P27487). The assay is described as follows: Inhibition of human recombinant DPP4 assessed as Gly-Pro-pNA chromogenic substrate cleavage for 16 mins preincubated with compound for 10 mins before addition of chromogenic substrate.
Assay [2] has as its system HeLa. The assay is described as follows: Cytotoxicity against human HeLa cells at 10 uM. The format is functional, cell-based.
Assay [3] concerns HeLa. The assay is described as follows: Cytotoxicity against human HeLa cells. Type of assay: functional. As to conditions: read-out: LC50 (the source's name).
Assay [4] addresses Dipeptidyl peptidase 8 (Homo sapiens, UniProt Q6V1X1). The assay is described as follows: Inhibition of human recombinant DPP8 assessed as Gly-Pro-pNA chromogenic substrate cleavage for 16 mins preincubated with compound for 10 mins before addition of chromogenic substrate.
Assay [5] is filed under the species Homo sapiens. The assay is described as follows: Selectivity ratio of IC50 for human recombinant DPP8 to IC50 for human recombinant DPP4.

The structures appear in SMILES notation.

Dipeptidyl peptidase 4, sequence (P27487 whole entry): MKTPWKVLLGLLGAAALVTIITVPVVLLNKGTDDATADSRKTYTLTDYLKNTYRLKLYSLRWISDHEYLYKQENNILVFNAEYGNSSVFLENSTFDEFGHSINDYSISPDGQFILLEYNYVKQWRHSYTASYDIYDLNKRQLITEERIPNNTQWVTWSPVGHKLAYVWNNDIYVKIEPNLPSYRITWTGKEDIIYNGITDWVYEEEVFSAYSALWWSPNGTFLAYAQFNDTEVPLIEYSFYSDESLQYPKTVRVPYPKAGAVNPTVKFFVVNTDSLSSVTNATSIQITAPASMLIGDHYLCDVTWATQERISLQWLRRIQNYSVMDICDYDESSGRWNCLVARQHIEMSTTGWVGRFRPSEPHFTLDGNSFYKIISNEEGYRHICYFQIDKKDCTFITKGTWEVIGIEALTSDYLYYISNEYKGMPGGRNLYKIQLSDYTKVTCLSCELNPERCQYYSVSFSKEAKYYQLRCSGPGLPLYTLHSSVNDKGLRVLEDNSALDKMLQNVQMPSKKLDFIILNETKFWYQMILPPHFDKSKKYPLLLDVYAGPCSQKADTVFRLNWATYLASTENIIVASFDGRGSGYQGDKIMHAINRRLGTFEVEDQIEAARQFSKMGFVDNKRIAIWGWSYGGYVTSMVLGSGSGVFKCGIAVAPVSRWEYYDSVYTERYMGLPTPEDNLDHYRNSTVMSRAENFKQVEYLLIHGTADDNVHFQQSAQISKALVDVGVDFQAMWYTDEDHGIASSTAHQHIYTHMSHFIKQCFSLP
Dipeptidyl peptidase 8, sequence (Q6V1X1 whole entry): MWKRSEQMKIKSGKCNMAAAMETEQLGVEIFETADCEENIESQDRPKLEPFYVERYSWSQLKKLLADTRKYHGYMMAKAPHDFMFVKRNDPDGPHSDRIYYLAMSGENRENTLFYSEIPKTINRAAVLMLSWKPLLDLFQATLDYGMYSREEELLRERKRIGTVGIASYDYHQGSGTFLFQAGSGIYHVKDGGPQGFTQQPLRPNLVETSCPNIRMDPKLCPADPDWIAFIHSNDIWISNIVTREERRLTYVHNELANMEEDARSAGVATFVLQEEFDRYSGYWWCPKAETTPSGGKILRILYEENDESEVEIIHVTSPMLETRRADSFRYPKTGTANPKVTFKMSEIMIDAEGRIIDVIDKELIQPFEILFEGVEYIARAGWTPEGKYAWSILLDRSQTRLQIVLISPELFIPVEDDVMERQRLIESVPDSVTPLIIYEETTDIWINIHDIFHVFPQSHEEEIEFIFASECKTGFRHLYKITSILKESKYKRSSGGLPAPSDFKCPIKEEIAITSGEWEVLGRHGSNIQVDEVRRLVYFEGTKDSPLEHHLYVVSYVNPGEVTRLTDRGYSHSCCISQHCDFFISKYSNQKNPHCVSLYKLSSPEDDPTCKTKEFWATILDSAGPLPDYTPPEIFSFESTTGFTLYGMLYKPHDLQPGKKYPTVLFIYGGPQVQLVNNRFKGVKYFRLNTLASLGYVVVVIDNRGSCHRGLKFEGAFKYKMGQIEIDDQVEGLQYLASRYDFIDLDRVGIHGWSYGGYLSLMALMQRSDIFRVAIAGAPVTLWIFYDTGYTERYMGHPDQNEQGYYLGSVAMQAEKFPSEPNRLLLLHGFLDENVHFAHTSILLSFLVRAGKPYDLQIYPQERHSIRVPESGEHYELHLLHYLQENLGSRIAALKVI

By IC50 is commonly meant the concentration that gives 50% inhibition. `Cc1nc(C(=O)O)cc(-c2ccc(F)cc2F)c1CN`: the IC50 in assay [1] is < 50 µM.

`Cc1nc(C(=O)N2CCCC2)cc(-c2ccccc2F)c1CN`: the IC50 in assay [1] is < 50 µM.

Take `Cc1nc(C(=O)N2CCCC2)cc(-c2ccc(Cl)cc2Cl)c1CN`: the Activity entry in assay [2] was “Not toxic”. Besides, the CC50 in assay [3] is > 10 µM.

Regarding `COC(=O)CNC(=O)c1cc(-c2ccc(F)cc2F)c(CN)c(C)n1`, the 50% inhibitory concentration (IC50) in assay [1] was < 50 µM.

In the case of `Cc1nc(C(=O)NC2CC2)cc(-c2ccc(Cl)cc2Cl)c1CN`, the IC50 in assay [1] was < 50 µM. Besides, the Activity result in assay [2] is “Not toxic”.

In the case of `Cc1nc(CN)cc(-c2ccccc2F)c1C(N)=O`, the IC50 in assay [1] is > 50 µM.

In the case of `Cc1nc(C(N)=O)cc(-c2ccccc2F)c1CN`, in assay [1], the half-inhibitory concentration (IC50) was < 50 µM.

As usually defined, the Ki is a dissociation constant, usually derived from enzyme kinetics or from competition with a known ligand. Consider `Cc1nc(C(=O)NC2CC2)cc(-c2ccc(F)cc2)c1CN`, for which the Ki in assay [4] came out at 106 µM. Also, the CC50 in assay [3] was > 10 µM.

For `Cc1nc(C(=O)N2CCCC2)cc(-c2ccc(F)cc2)c1CN`, in assay [4], the Ki was 137 µM. The CC50 in assay [3] is > 10 µM.

Take `CNC(=O)c1cc(-c2ccc(Cl)cc2Cl)c(CN)c(C)n1`: the Activity result in assay [2] is “Not toxic”. The CC50 in assay [3] is > 10 µM.

With `Cc1nc(C(N)=O)cc(-c2ccc(Cl)cc2Cl)c1CN`, in assay [2], the Activity entry is “Not toxic”. Further, the CC50 in assay [3] was > 10 µM.

Turning to `Cc1nc(C(=O)NCC(N)=O)cc(-c2ccc(Cl)cc2Cl)c1CN`, the Ratio IC50 in assay [5] came to 6600. Further, the IC50 in assay [1] was < 50 µM. In addition, the Activity result in assay [2] is “Not toxic”.

Regarding `Cc1nc(C(=O)N2CCOCC2)cc(-c2ccc(F)cc2)c1CN`, the IC50 in assay [1] was < 50 µM.

For the molecule `Cc1nc(C(=O)N2CCCC2)cc(-c2ccc(F)cc2F)c1CN`, the IC50 in assay [1] was < 50 µM.

Take `Cc1nc(C(=O)NCC#N)cc(-c2ccc(Cl)cc2Cl)c1CN`: the Activity entry in assay [2] was “Not toxic”. Moreover, the CC50 in assay [3] was > 10 µM.

In the case of `Cc1nc(C(=O)O)cc(-c2ccc(F)cc2)c1CN`, in assay [1], the IC50 was < 50 µM.

For the molecule `Cc1nc(C(=O)NC2CC2)cc(-c2ccccc2F)c1CN`, in assay [1], the IC50 was < 50 µM.

For the molecule `Cc1nc(CN)cc(-c2ccc(Cl)cc2)c1C(N)=O`, in assay [1], the IC50 was > 50 µM.

Turning to `Cc1cc(NC(=O)c2cc(-c3ccc(F)cc3F)c(CN)c(C)n2)no1`, the inhibitory constant (Ki) in assay [4] came to 179 µM. The CC50 in assay [3] is > 10 µM.

`Cc1nc(C(=O)N2CCOCC2)cc(-c2ccc(F)cc2F)c1CN`: the IC50 in assay [1] is < 50 µM.

`Cc1nc(C(=O)N2CCOCC2)cc(-c2ccc(Cl)cc2Cl)c1CN`: the 50% inhibitory concentration (IC50) in assay [1] is < 50 µM. For the same molecule, the Activity result in assay [2] was “Not toxic”.

Turning to `CNC(=O)c1cc(-c2ccc(Cl)cc2)c(CN)c(C)n1`, the IC50 in assay [1] is < 50 µM.

As to `Cc1nc(C(=O)NC2CC2)cc(-c2ccc(F)cc2F)c1CN`, the Ki in assay [4] was found to be 182 µM. The CC50 in assay [3] was > 10 µM.
